According to patent US10294202B2, “Pyrrolidinones as herbicides” (FMC Corporation, priority 2013, dated 2019):
Read-outs that look alike come from different tables or passages of the source.

Assays:
buckwheat, wild = assay: Test D pre-/postemergence herbicide test; assay type: in vivo, Polygonum convolvulus; details: for Plant response rating: Buckwheat, Wild, scale 0 to 100; for Plant response rating, Buckwheat, Wild: scale 0 to 100 (0 no effect, 100 complete control)
In short: (§1)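 Visual 0–100 ratings (0 = no effect, 100 = complete control) versus controls, made 7 to 21 days after treatment in a controlled growth environment. Test chemicals in surfactant-containing non-phytotoxic solvent were applied preemergence to silt loam-sown seeds and postemergence to plants 2–18 cm tall.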

foxtail, green = assay: Test D pre-/postemergence herbicide test; assay type: in vivo, Setaria viridis; details: for Plant response rating: Foxtail, Green, scale 0 to 100; for Plant response rating, Foxtail, Green: scale 0 to 100 (0 no effect, 100 complete control)
In short: as §1

rice = assay: Test C flooded paddy test; assay type: in vivo, Oryza sativa; details: Flood
In short: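 Visual injury scored against controls after 13 to 15 days in the greenhouse, using 0 (no effect) to 100 (complete control). Test compounds went straight into paddy water held 3 cm above the soil surface on 2-leaf-stage plants, with that flood depth maintained for the whole test.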

velvetleaf = assay: Test A pre-/postemergence herbicide test; assay type: in vivo, Abutilon theophrasti; details: for pest or weed control at 1000 g/ha: 1000 g ai/ha
In short: (§2)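 Formulated compound (non-phytotoxic solvent, surfactant) sprayed pre- onto soil of seeded loam/sand pots or post- onto seedlings at 1–2 leaves; ~10 d greenhouse; 0–100 visual control rating versus untreated.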

crabgrass, large = assay: Test A pre-/postemergence herbicide test; assay type: in vivo, Digitaria sanguinalis; details: for pest or weed control at 1000 g/ha: 1000 g ai/ha
In short: as §2

morningglory = assay: Test A pre-/postemergence herbicide test; assay type: in vivo, Ipomoea spp.; details: for pest or weed control at 1000 g/ha: 1000 g ai/ha
In short: as §2

ragweed = assay: Test A pre-/postemergence herbicide test; assay type: in vivo, Ambrosia elatior; details: for Plant response rating, Ragweed: 0 to 100 scale
In short: as §2

blackgrass = assay: Test A postemergence herbicide test; assay type: in vivo, Alopecurus myosuroides
In short: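 Potted in loam soil/sand blend; postemergence application at 1–2 leaf stage (2–10 cm). Greenhouse ~10 d. Visual injury vs untreated, 0–100 scale; 100 = complete control.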

[1] = 31 g ai/ha, scale of 0 to 100 where 0 is no effect and 100 is complete control, 13 to 15 days
[2] = 62 g ai/ha, scale of 0 to 100 where 0 is no effect and 100 is complete control, 13 to 15 days
[3] = 125 g ai/ha, scale of 0 to 100 where 0 is no effect and 100 is complete control, 13 to 15 days
[4] = Postemergence, 125 g ai/ha, 0 to 100 scale, 0 no effect, 100 complete control
[5] = Postemergence, 500 g ai/ha, 0 to 100 scale (0 no effect, 100 complete control)
[6] = Preemergence, 125 g ai/ha, visual rating on 0 to 100 scale (0 no effect, 100 complete control)
[7] = preemergence, 500 g ai/ha, 0 to 100 scale

SMILES	Plant response rating (buckwheat, wild; Postemergence, 16 g ai/ha)	Plant response rating (buckwheat, wild; Postemergence, 31 g ai/ha)	Plant response rating (buckwheat, wild; Postemergence, 62 g ai/ha)	Plant response rating (buckwheat, wild; Postemergence, 125 g ai/ha)	Plant response rating (buckwheat, wild; Postemergence, 250 g ai/ha)	Plant response rating (foxtail, green; Postemergence, 16 g ai/ha)	Plant response rating (foxtail, green; Postemergence, 31 g ai/ha)	Plant response rating (foxtail, green; Postemergence, 62 g ai/ha)	Plant response rating (foxtail, green; Postemergence, 125 g ai/ha)	Plant response rating (foxtail, green; Postemergence, 250 g ai/ha)	Plant response rating, Rice (rice; [1])	Plant response rating, Rice (rice; [2])	Plant response rating, Rice (rice; [3])	Plant response rating, Rice (rice; 250 g ai/ha, scale 0 to 100)	Plant response rating, Buckwheat, Wild (buckwheat, wild; Preemergence, 62 g ai/ha)	Plant response rating, Buckwheat, Wild (buckwheat, wild; Preemergence, 31 g ai/ha)	Plant response rating (buckwheat, wild; Preemergence, 250 g ai/ha)	Plant response rating, Foxtail, Green (foxtail, green; Preemergence, 62 g ai/ha)	Plant response rating, Foxtail, Green (foxtail, green; Preemergence, 31 g ai/ha)	Plant response rating (foxtail, green; Preemergence, 250 g ai/ha)	other results
O=C1NCC(c2ccc(F)c(F)c2)C1C(=O)Nc1cccc(F)c1F (stereo not shown) [Compound 17, N-(2,3-difluorophenyl)-4-(3,4-difluorophenyl)-2-oxo-3-pyrrolidinecarboxamide]	0	0	0	10	20	0	0	0	0	0	0	0	0	0	–	–	–	–	–	–	pest or weed control at 1000 g/ha (velvetleaf; Abutilon theophrasti, post-emergence, 240 h, Postemergence, 0 to 100 scale (0 no effect, 100 complete control), read-out: Plant response rating, Velvetleaf): 50%; pest or weed control at 1000 g/ha (velvetleaf; Abutilon theophrasti, pre-emergence, 240 h, Preemergence, visual rating on 0 to 100 scale (0 no effect, 100 complete control), approx. 10 days, read-out: Plant response rating, Velvetleaf): 40%; pest or weed control at 1000 g/ha (crabgrass, large; Digitaria sanguinalis, post-emergence, 240 h, Postemergence, 0 to 100 scale (0 no effect, 100 complete control), read-out: Plant response rating, Crabgrass, Large): 90%; pest or weed control at 1000 g/ha (crabgrass, large; Digitaria sanguinalis, pre-emergence, 240 h, Preemergence, visual rating on 0 to 100 scale (0 no effect, 100 complete control), approx. 10 days, read-out: Plant response rating, Crabgrass, Large): 90%; pest or weed control at 1000 g/ha (morningglory; Ipomoea, post-emergence, 240 h, Postemergence, 0 to 100 scale (0 no effect, 100 complete control), read-out: Plant response rating, Morningglory): 0%; pest or weed control at 1000 g/ha (morningglory; Ipomoea, pre-emergence, 240 h, Preemergence, visual rating on 0 to 100 scale (0 no effect, 100 complete control), approx. 10 days, read-out: Plant response rating, Morningglory): 30%
O=C1NCC(c2ccc(Cl)c(F)c2)C1C(=O)Nc1cccc(F)c1F (stereo not shown) [Compound 52]	0	0	0	0	0	0	0	0	0	0	10	10	10	15	0	0	10	0	0	60	Plant response rating, Buckwheat, Wild (buckwheat, wild; Preemergence, 16 g ai/ha): 0; Plant response rating (buckwheat, wild; Preemergence, 125 g ai/ha): 10; Plant response rating, Foxtail, Green (foxtail, green; Preemergence, 16 g ai/ha): 0; Plant response rating (foxtail, green; Preemergence, 125 g ai/ha): 0; Plant response rating, Velvetleaf (velvetleaf; [4]): 0; Plant response rating, Velvetleaf (velvetleaf; [5]): 0; Velvetleaf plant response rating (velvetleaf; [6]): 0; Plant response rating, Velvetleaf (velvetleaf; [7]): 20; Plant response rating, Crabgrass, Large (crabgrass, large; [4]): 80; Plant response rating, Crabgrass, Large (crabgrass, large; [5]): 80; Crabgrass, Large plant response rating (crabgrass, large; [6]): 90; Plant response rating, Crabgrass, Large (crabgrass, large; [7]): 90; Plant response rating, Morningglory (morningglory; [4]): 0; Plant response rating, Morningglory (morningglory; [5]): 0; Morningglory plant response rating (morningglory; [6]): 0; Plant response rating, Morningglory (morningglory; [7]): 0
O=C1NCC(c2ccc(C(F)(F)F)cc2)C1C(=O)Nc1cccc(F)c1F (stereo not shown) [Compound 80, N-(2,3-difluorophenyl)-2-oxo-4-[4-(trifluoromethyl)phenyl]-3-pyrrolidinecarboxamide]	–	0	10	0	0	–	45	45	65	65	0	0	0	0	0	0	15	65	20	80	Plant response rating (buckwheat, wild; Preemergence, 125 g ai/ha): 5; Plant response rating (foxtail, green; Preemergence, 125 g ai/ha): 75; pest or weed control at 125 g/ha (velvetleaf; Abutilon theophrasti, post-emergence, 240 h, Postemergence, 125 g ai/ha, 0 to 100 scale, 0 no effect, 100 complete control, read-out: Plant response rating, Velvetleaf): 10%; pest or weed control at 500 g/ha (velvetleaf; Abutilon theophrasti, post-emergence, 240 h, Postemergence, 500 g ai/ha, 0 to 100 scale (0 no effect, 100 complete control), read-out: Plant response rating, Velvetleaf): 60%; pest or weed control at 500 g/ha (velvetleaf; Abutilon theophrasti, pre-emergence, 240 h, preemergence, 500 g ai/ha, 0 to 100 scale, read-out: Plant response rating, Velvetleaf): 30%; Velvetleaf plant response rating (velvetleaf; [6]): 0; pest or weed control at 125 g/ha (crabgrass, large; Digitaria sanguinalis, post-emergence, 240 h, Postemergence, 125 g ai/ha, 0 to 100 scale, 0 no effect, 100 complete control, read-out: Plant response rating, Crabgrass, Large): 80%; pest or weed control at 500 g/ha (crabgrass, large; Digitaria sanguinalis, post-emergence, 240 h, Postemergence, 500 g ai/ha, 0 to 100 scale (0 no effect, 100 complete control), read-out: Plant response rating, Crabgrass, Large): 90%; pest or weed control at 500 g/ha (crabgrass, large; Digitaria sanguinalis, pre-emergence, 240 h, preemergence, 500 g ai/ha, 0 to 100 scale, read-out: Plant response rating, Crabgrass, Large): 90%; Crabgrass, Large plant response rating (crabgrass, large; [6]): 90; pest or weed control at 125 g/ha (morningglory; Ipomoea, post-emergence, 240 h, Postemergence, 125 g ai/ha, 0 to 100 scale, 0 no effect, 100 complete control, read-out: Plant response rating, Morningglory): 0%; pest or weed control at 500 g/ha (morningglory; Ipomoea, post-emergence, 240 h, Postemergence, 500 g ai/ha, 0 to 100 scale (0 no effect, 100 complete control), read-out: Plant response rating, Morningglory): 0%; pest or weed control at 500 g/ha (morningglory; Ipomoea, pre-emergence, 240 h, preemergence, 500 g ai/ha, 0 to 100 scale, read-out: Plant response rating, Morningglory): 0%; Morningglory plant response rating (morningglory; [6]): 0
O=C1NC[C@H](c2cccc(C(F)(F)F)c2)[C@H]1C(=O)Nc1ccccc1F [Compound 204, (3R,4S)—N-(2-fluorophenyl)-2-oxo-4-[3-(trifluoromethyl)phenyl]-3-pyrrolidinecarboxamide]	–	–	–	–	–	–	–	–	–	–	–	–	0	–	25	20	25	98	90	100	Plant response rating, Buckwheat, Wild (buckwheat, wild; Preemergence, 125 g ai/ha): 25; Plant response rating, Foxtail, Green (foxtail, green; Preemergence, 125 g ai/ha): 98; Plant response rating, Rice (rice; 250 g ai/ha, scale of 0 to 100 where 0 is no effect and 100 is complete control, 13 to 15 days): 0; Plant response rating, Rice (rice; 500 g ai/ha, scale 0 to 100): 0; Plant response rating, Rice (rice; 1000 g ai/ha, scale 0 to 100): 10; Plant response rating, Ragweed (ragweed; 125 g ai/ha, visual rating, 0 no effect, 100 complete control, approximately 10 days, preemergence): 0; Plant response rating, Ragweed (ragweed; Postemergence, 125 g ai/ha, 0 is no effect, 100 is complete control): 0; Ragweed plant response rating (0 to 100 scale, 0 is no effect, 100 is complete control) (ragweed; Postemergence, 500 g ai/ha): 0; Plant response rating, Ragweed (ragweed; preemergence, 500 g ai/ha, 0 is no effect and 100 is complete control): 80; Plant response rating, Blackgrass (blackgrass; 125 g ai/ha, 0 to 100 scale, 0 is no effect, 100 is complete control): 70; Blackgrass plant response rating (0 to 100 scale, 0 is no effect, 100 is complete control) (blackgrass; 500 g ai/ha): 80
